# Test results published in publication PMC5467912, “Asymmetric regulation of quorum-sensing receptors drives autoinducer-specific gene expression programs in Vibrio cholerae” (PLoS Genetics, 2017).
# Values joined by “and” are separate entries in the source; they are usually repeats but may differ in a detail not shown here. Identical values can stand only once. Like-named read-outs stand apart in the source and are kept apart here.
# How the values were obtained:
# [1] = test system: QS-controlled luxCDABE operon; type: cell-based; conditions: for Light production: LuxS-CqsA- +CAI-1 5 μM; for RLU: Strain AH371
# CqsS [2] = type: cell-based; conditions: for CqsS Dimers: LuxS-CqsA-, AI-2 1 μM, CAI-1 5 μM, single replicates
# hapA = type: cell-based; conditions: ΔcqsA ΔluxS strain, HCD
# qrr4 = type: cell-based
# CqsS D618N = test system: T1, CqsS D618N; assay: CqsS D618N autophosphorylation in inverted membrane vesicles, 32P (Fig 7A); type: biochemical, Vibrio cholerae
# T1 construct: made in house; host or cells: E. coli C43 (DE3), pET21b; used as inverted membrane vesicles
# CqsS F166L [3] = assay: CqsS-dependent repression of qrr4-gfp, CqsS F166L (Fig 7C); type: cell-based, Vibrio cholerae
# CqsS C170Y = assay: CqsS-dependent repression of qrr4-gfp, CqsS C170Y (Fig 7C); type: cell-based, Vibrio cholerae; conditions: Treatment 1uM; CqsS mutant C170Y
# CqsS [4] = molecular target: T2, CqsS (Vibrio cholerae serotype O1, UniProt Q9KM66); type: cell-based; conditions: Strain WN1102
# T2 construct: endogenous in cells; host or cells: V. cholerae WN1102 (ΔcqsA ΔluxQ/pBB1), derived from C6706str2
# CqsS F162A = conditions: cited from earlier work
# CqsS F166L [5] = conditions: cited from earlier work
smiles,measurement,setting,value
"CCCCCCCCCC(=O)[C@@H](O)CC [CAI-1, (S)-3-hydroxytridecan-4-one]",Light production,[1]; OD600 0.0198,6464646 RLU
same,Light production,[1]; OD600 0.0375,5626666 RLU
same,Light production,[1]; OD600 0.256,957031 RLU
same,Light production,[1]; OD600 0.663,472096 RLU
same,Light production,[1]; OD600 0.982,378819 RLU
same,Light production,[1]; OD600 1.101,133515000 RLU
same,RLU,[1]; agonist 0.0476837 nM,5.19E+03 RLU and 2.61E+03 RLU
same,RLU,[1]; agonist 0.762939 nM,2.58E+03 RLU and 5.16E+03 RLU and 2.67E+03 RLU
same,RLU,[1]; agonist 3.05176 nM,5.00E+03 RLU and 2.56E+03 RLU and 2.61E+03 RLU
same,RLU,[1]; agonist 48.8281 nM,1.58E+04 RLU and 1.61E+04 RLU and 1.60E+04 RLU
same,RLU,[1]; agonist 195.312 nM,2.98E+05 RLU and 2.86E+05 RLU and 2.15E+05 RLU
same,RLU,[1]; agonist 781.25 nM,3.60E+06 RLU and 4.20E+06 RLU and 3.87E+06 RLU
same,RLU,[1]; agonist 3125 nM,1.30E+07 RLU and 1.41E+07 RLU and 1.40E+07 RLU
same,RLU,[1]; agonist 12500 nM,1.88E+07 RLU and 2.11E+07 RLU and 2.10E+07 RLU
same,RLU,[1]; agonist 50000 nM,1.88E+07 RLU and 1.96E+07 RLU and 1.89E+07 RLU
same,increase in light production,"[1]; saturating autoinducer, HCD, vs untreated ΔcqsA ΔluxS","100,000 fold"
same,CqsS Dimers,CqsS [2]; HCD (OD600 = 2.0),114.596 and 64.6161 and 71.1979 and 202.196 and 256.645 and 84.2562 and 79.0603 and 97.3422
same,CqsS Dimers,CqsS [2]; LCD (OD600 = 0.2),74.4347 and 10.9291 and 11.9686 and 59.9755 and 52.7962 and 18.8946 and 26.4401 and 52.893
same,CqsS protein levels,"CqsS [2]; ΔcqsA ΔluxS mutant, LCD and HCD",increased CqsS protein levels to nearly that present in the WT
same,increase in hapA expression,hapA,over 50 fold
same,"RLU, average per biological replicate (Totals)","qrr4; LuxS-CqsA- strain + autoinducer, Rep 1-3",2.55E+08 RLU and 2.82E+08 RLU and 3.63E+08 RLU
same,reduction of qrr4-luxCDABE expression,"qrr4; saturating autoinducer, ΔcqsA ΔluxS mutant",20 fold
same,% Total Phosphorylation,CqsS D618N; agonist 0.32 uM,95.2512% and 79.8407% and 88.8244% and 85.3997% and 90.9887%
same,% Total Phosphorylation,CqsS D618N; agonist 0.64 uM,113.145% and 87.5268% and 103.834% and 64.446% and 85.0733% and 67.8245%
same,% Total Phosphorylation,CqsS D618N; agonist 1.28 uM,54.1919% and 72.6606% and 66.4662% and 63.8968% and 70.5235% and 55.5883%
same,% Total Phosphorylation,CqsS D618N; agonist 6.4 uM,11.8696% and 10.1556% and 13.3867% and 14.118% and 13.0644% and 14.5467%
same,% Total Phosphorylation,CqsS D618N; agonist 8 uM,8.344% and 11.4086% and 9.0715% and 10.6327% and 12.5012% and 11.7307%
same,% Total Phosphorylation,CqsS D618N; agonist 10 uM,12.437% and 6.165% and 12.0698% and 9.199% and 10.7397% and 9.533%
same,% Total Phosphorylation,CqsS D618N; agonist 15 uM,6.329% and 4.395% and 5.101% and 4.035% and 5.504% and 5.125%
same,Qrr4-GFP/OD600,"CqsS F166L [3]; Treatment 1uM, CqsS mutant F166L",7778886 and 7289924 and 6896372
same,response (Qrr4-GFP production),CqsS F166L [3]; compounds at 1 μM,nearly impervious
same,Qrr4-GFP/OD600,CqsS C170Y,23520280 and 22034610 and 28130220
same,RLU,CqsS [4]; CAI-1 0.0119209 nM,2.86E+07 RLU
same,RLU,CqsS [4]; CAI-1 0.0476837 nM,2.99E+07 RLU
same,RLU,CqsS [4]; CAI-1 0.190735 nM,2.91E+07 RLU
same,RLU,CqsS [4]; CAI-1 0.762939 nM,2.65E+07 RLU
same,RLU,CqsS [4]; CAI-1 3.05176 nM,3.77E+07 RLU
same,RLU,CqsS [4]; CAI-1 12.207 nM,1.29E+08 RLU
same,RLU,CqsS [4]; CAI-1 48.8281 nM,1.08E+09 RLU
same,RLU,CqsS [4]; CAI-1 195.312 nM,1.14E+10 RLU
same,RLU,CqsS [4]; CAI-1 781.25 nM,7.27E+10 RLU
same,RLU,CqsS [4]; CAI-1 3125 nM,1.12E+11 RLU
same,RLU,CqsS [4]; CAI-1 12500 nM,1.47E+11 RLU
same,RLU,CqsS [4]; CAI-1 50000 nM,1.61E+11 RLU
same,response of CqsS variant to CAI-1,CqsS F162A,do not respond
same,response of CqsS variant to CAI-1,CqsS F166L [5],do not respond
